Data published in the supplement of paper PMC4862054.
“And” between values parts separate entries of the source, which are not always exact repeats. Equal entries are not always repeated.

Tests used:
Conditions in all cases: incubation time: 72 h
BT-549 [1] = assay: drug sensitivity score (DSS), CellTiter-Blue viability (DSS (AUC-based score)); higher = stronger viability inhibition; extreme values may be limits of the assay
How it was run: (§1)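 Compound was arrayed in 384-well plates as a 5- or 9-concentration series, and 20 µl of breast cancer cell suspension was seeded on top. After 72 h, each well received 2.5 µl CellTiter-Blue for 2 h at 37 °C before fluorescence reading at 560/590 nm. Per-plate normalisation used 0.1 % DMSO and a positive kill control, and the area under the fitted dose-response curve gave the drug sensitivity score.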

SK-BR-3 [2] = assay: as above
How it was run: as §1

MDA-MB-453 [3] = assay: as above
How it was run: as §1

MDA-MB-468 [4] = assay: as above
How it was run: as §1

DU-4475 = assay: as above
How it was run: as §1

BT-474 [5] = assay: as above
How it was run: as §1

HDQ-P1 = assay: as above
How it was run: as §1

MDA-MB-231 [6] = assay: as above
How it was run: as §1

CAL-51 [7] = assay: as above
How it was run: as §1

HCC1599 [8] = assay: as above
How it was run: as §1

Hs578T = assay: as above
How it was run: as §1

HCC1143 [9] = assay: as above
How it was run: as §1

BT-549 [10] = assay: normalised viability (% of control), CellTiter-Blue; higher = more viable cells (about 100 = DMSO control)
How it was run: (§2)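 Breast cancer cell lines were treated for 72 h in 384-well format and measured by CellTiter-Blue fluorescence at 560/590 nm. Results were normalised per plate to vehicle (100) and a positive kill control (0). The entry is normalised viability at a single listed concentration of the series.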

SK-BR-3 [11] = assay: as above
How it was run: as §2

CAL-120 = assay: as above
How it was run: as §2

MDA-MB-453 [12] = assay: as above
How it was run: as §2

MDA-MB-468 [13] = assay: as above
How it was run: as §2

BT-474 [14] = assay: as above
How it was run: as §2

MFM-223 = assay: as above
How it was run: as §2

HCC1937 = assay: as above
How it was run: as §2

MDA-MB-231 [15] = assay: as above
How it was run: as §2

CAL-51 [16] = assay: as above
How it was run: as §2

HCC1599 [17] = assay: as above
How it was run: as §2

HCC1143 [18] = assay: as above
How it was run: as §2

Cc1c(C(=O)Nc2ccc(N3C[C@@H](C)O[C@@H](C)C3)nc2)cccc1-c1ccc(OC(F)(F)F)cc1 [NVP-LDE225]
Conditions	drug sensitivity score
BT-474 [5]	0
BT-549 [1]	0
CAL-51 [7]	0
DU-4475	0
HCC1143 [9]	0
HCC1599 [8]	0
HDQ-P1	0
Hs578T	0
MDA-MB-231 [6]	0
MDA-MB-453 [3]	0
MDA-MB-468 [4]	0
SK-BR-3 [2]	0

normalised viability [%]
Conditions	3 nM	10 nM	30 nM	100 nM	1000 nM	10000 nM
BT-474 [14]	–	96.5	–	–	101	63.5
BT-549 [10]	–	113	–	–	96	97.3
CAL-51 [16]	105	–	101	101	–	–
CAL-120	–	99.9	–	–	92.7	97
HCC1143 [18]	–	108	–	–	102	96.4
HCC1599 [17]	–	105	–	–	90.5	102
HCC1937	–	38.8	–	–	92.7	82.1
MDA-MB-231 [15]	–	121	–	–	102	82.9
MDA-MB-453 [12]	98.9	–	88.7	105	–	–
MDA-MB-468 [13]	–	109	–	–	109	91.9
MFM-223	–	93.5	–	–	93.8	88.2
SK-BR-3 [11]	–	104	–	–	102	111

O=C(c1cc(Cc2n[nH]c(=O)c3ccccc23)ccc1F)N1CCN(C(=O)C2CC2)CC1 [Olaparib]
Conditions	drug sensitivity score
BT-474 [5]	0
BT-549 [1]	0
CAL-51 [7]	3.33
DU-4475	3.83
HCC1143 [9]	0
HCC1599 [8]	0
HDQ-P1	0
Hs578T	0
MDA-MB-231 [6]	0
MDA-MB-453 [3]	0
MDA-MB-468 [4]	2.78
SK-BR-3 [2]	0.543

normalised viability [%]
Conditions	3 nM	10 nM	30 nM	100 nM	1000 nM	10000 nM
BT-474 [14]	–	109	–	–	104	98.2
BT-549 [10]	–	95	–	–	90.8	84.9
CAL-51 [16]	107	–	98.5	97.7	–	–
CAL-120	–	78.7	–	–	80.5	68.6
HCC1143 [18]	–	81.6	–	–	92.9	80.2
HCC1599 [17]	–	93.8	–	–	114	94.2
HCC1937	–	78.5	–	–	58.4	51.2
MDA-MB-231 [15]	–	89.7	–	–	88	72.2
MDA-MB-453 [12]	109	–	92.3	100	–	–
MDA-MB-468 [13]	–	102	–	–	89.8	65.8
MFM-223	–	98.3	–	–	98.8	114
SK-BR-3 [11]	–	103	–	–	93.5	82.1

CO[C@H](C(=O)[C@@H](O)[C@@H](C)O)[C@@H]1Cc2cc3cc(O[C@H]4C[C@@H](O[C@@H]5C[C@@H](O)[C@H](O)[C@@H](C)O5)[C@H](O)[C@@H](C)O4)c(C)c(O)c3c(O)c2C(=O)[C@H]1O[C@H]1C[C@@H](O[C@@H]2C[C@@H](O)[C@@H](O[C@@H]3C[C@](C)(O)[C@H](O)[C@@H](C)O3)[C@@H](C)O2)[C@H](O)[C@@H](C)O1 [Plicamycin]
Conditions	drug sensitivity score
BT-474 [5]	16.8 and 17.6
BT-549 [1]	27.1 and 27.9
CAL-51 [7]	22.1 and 22.3
DU-4475	28 and 28.2
HCC1143 [9]	22.2 and 25.5
HCC1599 [8]	18.9 and 20.2
HDQ-P1	17.6 and 22.2
Hs578T	28 and 31.7
MDA-MB-231 [6]	26 and 26.4
MDA-MB-453 [3]	22.7 and 24.3
MDA-MB-468 [4]	29.9 and 30.3
SK-BR-3 [2]	25 and 27.1

normalised viability
Conditions	3 nM	10 nM	30 nM	100 nM	1000 nM	10000 nM
BT-474 [14]	–	122% and 103%	–	–	36% and 23.9%	22.1% and 26.4%
BT-549 [10]	–	94.7% and 83.2%	–	–	6.74% and 5.38%	6.68% and 5.22%
CAL-51 [16]	99.7% and 119%	–	96.1% and 112%	62.3% and 61.2%	–	–
CAL-120	–	89.5% and 75.6%	–	–	13.4% and 10.2%	11.9% and 9.12%
HCC1143 [18]	–	84.9% and 62.2%	–	–	22% and 14.7%	16.7% and 14.6%
HCC1599 [17]	–	89.6% and 108%	–	–	22.3% and 22.2%	15.2% and 19.4%
HCC1937	–	85.8% and 78.5%	–	–	22.1% and 19.5%	29.1% and 20.6%
MDA-MB-231 [15]	–	82.1% and 88.4%	–	–	9.81% and 8.56%	8.03% and 7.03%
MDA-MB-453 [12]	109% and 113%	–	99.8% and 92.6%	48.3% and 34.6%	–	–
MDA-MB-468 [13]	–	91.4% and 92.1%	–	–	3.16% and 3.32%	2.7% and 3.47%
MFM-223	–	103% and 87.9%	–	–	20.3% and 16.5%	9.96% and 7.4%
SK-BR-3 [11]	–	111% and 88.8%	–	–	6.61% and 5.62%	4.44% and 5.25%

C[C@]12C=CC(=O)C=C1CC[C@@H]1[C@@H]2C(=O)C[C@@]2(C)[C@H]1CC[C@]2(O)C(=O)CO [Prednisone]
Conditions	drug sensitivity score
BT-474 [5]	0
BT-549 [1]	0
CAL-51 [7]	0
DU-4475	0
HCC1143 [9]	0
HCC1599 [8]	0
HDQ-P1	0
Hs578T	0
MDA-MB-231 [6]	0
MDA-MB-453 [3]	0
MDA-MB-468 [4]	0
SK-BR-3 [2]	0

normalised viability [%]
Conditions	3 nM	10 nM	30 nM	100 nM	1000 nM	10000 nM
BT-474 [14]	–	133	–	–	109	111
BT-549 [10]	–	96.7	–	–	107	108
CAL-51 [16]	104	–	98.3	103	–	–
CAL-120	–	79.9	–	–	79.3	96.3
HCC1143 [18]	–	91	–	–	89.1	86.8
HCC1599 [17]	–	102	–	–	103	94
HCC1937	–	95.7	–	–	105	98.9
MDA-MB-231 [15]	–	97	–	–	101	108
MDA-MB-453 [12]	106	–	115	113	–	–
MDA-MB-468 [13]	–	98.6	–	–	104	98
MFM-223	–	91.7	–	–	89.7	94.8
SK-BR-3 [11]	–	101	–	–	111	113

CO[C@H]1C[C@@H]2CC[C@@H](C)[C@@](O)(O2)C(=O)C(=O)N2CCCC[C@H]2C(=O)O[C@H]([C@H](C)C[C@@H]2CC[C@@H](O)[C@H](OC)C2)CC(=O)[C@H](C)/C=C(\C)[C@@H](O)[C@@H](OC)C(=O)[C@H](C)C[C@H](C)/C=C/C=C/C=C/1C [Sirolimus]
Conditions	drug sensitivity score
BT-474 [5]	0
BT-549 [1]	20.8
CAL-51 [7]	23.8
DU-4475	15
HCC1143 [9]	10.1
HCC1599 [8]	9.43
HDQ-P1	13.2
Hs578T	14.4
MDA-MB-231 [6]	0
MDA-MB-453 [3]	27.8
MDA-MB-468 [4]	14.2
SK-BR-3 [2]	15.4

normalised viability [%]
Conditions	0.3 nM	1 nM	3 nM	10 nM	100 nM	1000 nM
BT-474 [14]	–	74.7	–	–	75.1	67.5
BT-549 [10]	–	55.6	–	–	57.5	45.2
CAL-51 [16]	80	–	45.8	34.5	–	–
CAL-120	–	79.6	–	–	53.4	47.3
HCC1143 [18]	–	90.3	–	–	71.6	71.4
HCC1599 [17]	–	88.4	–	–	56.7	75.3
HCC1937	–	58	–	–	46.3	59
MDA-MB-231 [15]	–	74	–	–	62.8	87
MDA-MB-453 [12]	86.1	–	34.2	32.2	–	–
MDA-MB-468 [13]	–	70.2	–	–	65.3	69.5
MFM-223	–	56.2	–	–	47.5	47.1
SK-BR-3 [11]	–	84.8	–	–	48.4	43
